Reference: article PMC11929900 (Communications Chemistry, 2025)

Molecular target: h-cGAS (Homo sapiens, UniProt Q8N884)
Assay: cGAS Kinase-Glo inhibition biochemical assay

h-cGAS, sequence (Q8N884 whole entry): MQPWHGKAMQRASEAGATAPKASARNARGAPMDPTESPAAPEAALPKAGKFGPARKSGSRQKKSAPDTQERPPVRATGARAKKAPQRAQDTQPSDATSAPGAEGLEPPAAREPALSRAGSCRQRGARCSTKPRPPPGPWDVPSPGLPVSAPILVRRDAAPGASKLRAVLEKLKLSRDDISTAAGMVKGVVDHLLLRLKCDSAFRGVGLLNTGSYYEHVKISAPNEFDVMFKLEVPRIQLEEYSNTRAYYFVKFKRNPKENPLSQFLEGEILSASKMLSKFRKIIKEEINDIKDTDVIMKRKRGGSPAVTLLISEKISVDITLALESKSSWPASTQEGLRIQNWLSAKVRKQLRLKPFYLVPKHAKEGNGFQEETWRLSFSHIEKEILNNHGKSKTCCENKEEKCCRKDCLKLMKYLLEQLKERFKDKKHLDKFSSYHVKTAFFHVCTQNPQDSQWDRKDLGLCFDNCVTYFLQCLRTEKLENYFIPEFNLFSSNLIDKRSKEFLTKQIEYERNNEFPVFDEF

COCC(=O)N1CCc2[nH]c3c(Cl)c(Cl)ccc3c2C1(C)C [Compound 3, 1-(6,7-dichloro-1,1-dimethyl-1,3,4,5-tetrahydro-2H-pyrido[4,3-b]indol-2-yl)-2-methoxyethan-1-one]
IC50: > 10 µM
